Measurements published in patent US5137922A (priority 1989, dated 1992).
Like-named read-outs stand apart in the source and are kept apart here.

Key:
[1] = target: hemaglutinin (HA) (Influenza A virus (A/Sichuan/2/1987(H3N2)), UniProt H9XCU1); test: Hemaglutinin activity of type A influenza virus after treatment (agglutination of red blood cells); format: biochemical, A/Sichuan/2/87(H3N2); conditions: FIG. 1, concentration dependence
neuraminidase (NA) = neuraminidase (NA) (Influenza B virus (B/USSR/100/83), UniProt P16205); format: biochemical, type B influenza virus, B/USSA/100/83E; conditions: control 11.0
type A influenza virus = test: microbe, parasite or virus in culture; format: cell-based, A/Sichuan/2/87(H3N2)
virus = test: Electron microscope observation of virus suspension with EGCg; conditions: EGCg added to suspension of the virus
From the text: The […] (PTA) dyeing method was utilized.

type B influenza virus = test: microbe, parasite or virus in culture; format: cell-based, B/USSA/100/83E; conditions: unidentified influenza virus, read-out: percentage of inhibition against infection; for inhibition at 4 µg/mL: 5 min; for inhibition at 1 µg/mL: 1 h

Structure (SMILES) | hemaglutinin activity inhibiting power [1] | NA activity (neuraminidase (NA); 50 μg/ml) | NA activity (neuraminidase (NA); 100 μg/ml) | infection inhibiting power (type A influenza virus; FIG. 1, concentration dependence) | inhibition at 0.5 µg/mL (type A influenza virus; unidentified influenza virus, MDCK, 1 h, read-out: inhibition of infection) | number of plaques (type A influenza virus; virus treated 1 hour, 0.5 μg/ml) | behavior of the virus under electron microscope (virus) | inhibition at 4 µg/mL (type B influenza virus) | inhibition at 1 µg/mL (type B influenza virus)
O=C(O[C@@H]1Cc2c(O)cc(O)cc2O[C@@H]1c1cc(O)c(O)c(O)c1)c1cc(O)c(O)c(O)c1 [EGCg, (-)epigallocatechin gallate] | depend on the concentration | 8.00 | 5.10 | depend on the concentration | 100% | zero | instantaneous formation of agglutinated lumps of the viruses | 100% | 100%
O=C(O[C@@H]1Cc2c(O)cc(O)cc2O[C@@H]1c1cc(O)c(=O)c2c(O)c(O)cc([C@H]3Oc4cc(O)cc(O)c4C[C@H]3OC(=O)c3cc(O)c(O)c(O)c3)c2c1)c1cc(O)c(O)c(O)c1 [TF3, theaflavin digallate] |  |  |  |  |  |  |  | 100% | 100%
